According to patent publication US20220073496A1, “NOVEL QUINOLINE DERIVATIVE INHIBITOR” (Nanjing Transthera Biosciences Co., Ltd., priority 2018, published 2022):

Key:
TrkC (h) = molecular target: T1, TrkC (h) (Homo sapiens, UniProt Q16288); experiment: Enzymatic activity test, TrkC (h); assay type: biochemical; conditions: 10 μM [γ-33P]-ATP, 40 minutes, room temperature
T1 construct: purchased
Experimental: Assay 4: Enzymatic Activity Test of the Compound of the Present Invention
Test substances: the compounds of the present invention, wherein the structures and preparations thereof were as described above.
Preparation of the Compound Stock Solution
The compound was dissolved in 100% DMSO to prepare a stock solution with a maximum concentration of 500 μM.
Preparation of the Compound Working Solution
The compound stock solution was diluted to final concentrations of 500, 150, 50, 15. 5, 1.5, 0.5, 0.15 and 0.05 μM to become the compound working solutions (50×).
Preparation of Different Enzyme Reaction Solutions
The TrkC (h) enzyme was dissolved in 8 mM MOPS (pH 7.0), 0.2 mM EDTA, and 500 μM GEEPLYWSFPAKKK to prepare an enzyme solution having a final concentration of 38 nM. The enzymatic reaction was activated by using 10 mM magnesium acetate and 10 μM [γ-^33P]-ATP to form an Mg/ATP mixed solution.
In a 384-well plate, the compound working solution was added to final concentrations of 10000, 3000, 1000, 300, 100, 30, 10, 3, and 1 nM. Then different enzyme reaction solutions prepared according to the above conditions were added. The incubation was carried out for 40 minutes at room temperature. The test was terminated by the addition of a 0.5% phosphoric acid solution. 10 μL of the reaction solution was taken and dropped to the P30 filter paper. The filter paper was washed 4 times with 0.425% phosphoric acid solution and once with methanol, and then placed on a scintillation counter. The […] IC50 values were calculated using GraphPad 5.0 software.

[1] = molecular target: T2, Ba/F3 LMNA-NTRK1 G667C cells (Homo sapiens, UniProt P04629, G667C, cells depend on it); experiment: Cell viability test (CTG), Ba/F3 LMNA-NTRK1 G667C; assay type: cell-based; conditions: NTRK1 gene mutant cell, 72 hours, read-out: IC50 Ba/F3 LMNA-NTRK1 G667C
T2 construct: Ba/F3 LMNA-NTRK1 G667C and Ba/F3 LMNA-NTRK1-V573M are NTRK1 gene mutant cells; fused on or other part: P02545 (Prelamin-A/C)
Description: (§1) Assay 8: Cell viability test of the compounds of the present invention
Ba/F3 LMNA-NTRK1 G667C and Ba/F3 LMNA-NTRK1-V573M are NTRK1 gene mutant cells.
(§2) Test substances: the compounds of the present invention, wherein the structures thereof were as described above.
(§3) Test instrument: SpectraMax multi-label microplate reader.
(§4) Each cell was inoculated in a 96-well plate and adherent cells were cultivated overnight. Different concentrations of the compounds (9 dose groups, 3.16 times DMSO serial dilution) were added to give the final concentration of 0.1-1000 nM, and the final DMSO content was 1‰. The negative control wells contained the medium containing 1‰ DMSO. The cells were incubated at 37° C. in a condition of 5% CO2 and 95% humidity for 72 hours for use. An equal volume of CTG reagent was added to each well, and the cells were lysed by shaking for 5 minutes on an orbital shaker, and incubated for 20 minutes at room temperature to stabilize the cold light signal. The cold light signal was read with a microplate reader. Data were analyzed using GraphPad Prism 5.0 software, and data were fitted using nonlinear S-curve regression to derive a dose-response curve and thereby calculate IC50 values.

Ba/F3 ETV6-NTRK2 cells = molecular target: T3, Ba/F3 ETV6-NTRK2 cells (Homo sapiens, UniProt Q16620); experiment: Cell viability test (CTG), Ba/F3 ETV6-NTRK2; assay type: cell-based; conditions: NTRK2 wild type cell, 72 hours, read-out: IC50 Ba/F3 ETV6-NTRK2
T3 construct: fused on or other part: P41212 (Transcription factor ETV6)
Experimental: as §1
Ba/F3 ETV6-NTRK2 is an NTRK 2 wild type cell;
as §2, §3, §4

[2] = molecular target: T4, pCSF1R in CSF1R plasmid-transfected HEK293T cells (Homo sapiens, UniProt P07333); experiment: Inhibitory activity on the cell pCSF1R (Western Blot); assay type: cell-based; conditions: compound 30, 100, 300, 1000 nM, 120 minutes
T4 construct: expressed in transfected cells; host or cells: HEK293T
Experimental: Assay 7: Test for Inhibitory Activities of the Compounds of the Present Invention on the Cell pCSF1R
HEK293T is a human renal epithelial cell.
as §2
Test equipment: protein electrophoresis apparatus (manufactured by Bio Rad), transfer unit (manufactured by Bio Rad), exposure unit (manufactured by Tanon), CO2 cell incubator (manufactured by Thermo).
The BEK293T cells were inoculated in a 6-well plate (containing 10% FBS DMEM medium, 4×10^5 cells per well), and adherent cells were cultivated at 37° C. in a 5% CO2 condition for 6 hours. Each well was transfected with 2 μg CSF1R plasmid, and the cells were cultivated at 37° C. in a 5% CO2 condition overnight. At 24 hours after transfection, different concentrations of compounds were added to the administration group. The final compound concentrations were 30, 100, 300, and 1000 nM, and the final DMSO content was 1‰. The negative control wells contained the medium containing 1‰ DMSO. […] The inhibitory activity of the compound on the cell pCSF1R was examined.

T2 sequence (P04629 whole entry G667C, the tested form may be a part): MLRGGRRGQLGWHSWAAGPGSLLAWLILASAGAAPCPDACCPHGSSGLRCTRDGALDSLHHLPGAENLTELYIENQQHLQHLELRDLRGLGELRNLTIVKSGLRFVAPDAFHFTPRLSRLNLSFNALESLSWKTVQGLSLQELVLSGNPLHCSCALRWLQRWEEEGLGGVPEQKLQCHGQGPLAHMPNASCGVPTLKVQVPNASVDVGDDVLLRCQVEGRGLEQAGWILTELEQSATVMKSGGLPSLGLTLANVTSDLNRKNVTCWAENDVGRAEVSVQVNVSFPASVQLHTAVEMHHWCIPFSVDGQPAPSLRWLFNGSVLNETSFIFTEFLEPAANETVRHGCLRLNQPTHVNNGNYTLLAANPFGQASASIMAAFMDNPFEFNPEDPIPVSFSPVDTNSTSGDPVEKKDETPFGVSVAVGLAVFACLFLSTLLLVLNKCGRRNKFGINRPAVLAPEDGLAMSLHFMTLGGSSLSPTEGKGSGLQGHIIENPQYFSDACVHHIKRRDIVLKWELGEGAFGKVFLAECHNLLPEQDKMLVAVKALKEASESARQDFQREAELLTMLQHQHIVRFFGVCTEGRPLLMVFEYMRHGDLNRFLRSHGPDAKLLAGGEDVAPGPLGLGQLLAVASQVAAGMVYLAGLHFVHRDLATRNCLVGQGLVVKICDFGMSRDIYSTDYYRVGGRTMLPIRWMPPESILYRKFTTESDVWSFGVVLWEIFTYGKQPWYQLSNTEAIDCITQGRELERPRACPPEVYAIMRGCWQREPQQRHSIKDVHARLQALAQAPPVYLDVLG
T1 sequence (Q16288 32-839): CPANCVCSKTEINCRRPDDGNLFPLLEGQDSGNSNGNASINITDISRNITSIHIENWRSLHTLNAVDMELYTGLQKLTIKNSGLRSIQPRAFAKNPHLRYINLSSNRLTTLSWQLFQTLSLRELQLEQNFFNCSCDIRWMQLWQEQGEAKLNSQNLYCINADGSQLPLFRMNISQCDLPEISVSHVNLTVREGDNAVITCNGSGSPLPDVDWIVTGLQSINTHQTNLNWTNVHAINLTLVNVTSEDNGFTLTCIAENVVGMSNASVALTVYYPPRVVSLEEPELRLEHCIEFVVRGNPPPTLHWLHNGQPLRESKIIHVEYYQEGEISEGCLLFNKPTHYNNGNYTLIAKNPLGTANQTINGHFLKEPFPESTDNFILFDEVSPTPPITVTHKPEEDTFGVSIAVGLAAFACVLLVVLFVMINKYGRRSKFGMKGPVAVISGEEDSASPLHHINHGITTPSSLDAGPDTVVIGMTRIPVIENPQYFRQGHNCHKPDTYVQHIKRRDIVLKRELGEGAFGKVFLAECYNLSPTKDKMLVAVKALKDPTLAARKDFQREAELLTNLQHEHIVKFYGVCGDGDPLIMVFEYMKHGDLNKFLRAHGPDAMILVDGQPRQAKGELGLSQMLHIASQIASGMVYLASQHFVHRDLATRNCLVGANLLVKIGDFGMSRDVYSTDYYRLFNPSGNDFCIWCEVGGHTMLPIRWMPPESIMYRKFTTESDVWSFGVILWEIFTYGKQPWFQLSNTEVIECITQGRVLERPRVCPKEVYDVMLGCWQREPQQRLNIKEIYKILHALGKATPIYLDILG
T3 sequence (Q16620 whole entry, change not shown, the tested form may be a part): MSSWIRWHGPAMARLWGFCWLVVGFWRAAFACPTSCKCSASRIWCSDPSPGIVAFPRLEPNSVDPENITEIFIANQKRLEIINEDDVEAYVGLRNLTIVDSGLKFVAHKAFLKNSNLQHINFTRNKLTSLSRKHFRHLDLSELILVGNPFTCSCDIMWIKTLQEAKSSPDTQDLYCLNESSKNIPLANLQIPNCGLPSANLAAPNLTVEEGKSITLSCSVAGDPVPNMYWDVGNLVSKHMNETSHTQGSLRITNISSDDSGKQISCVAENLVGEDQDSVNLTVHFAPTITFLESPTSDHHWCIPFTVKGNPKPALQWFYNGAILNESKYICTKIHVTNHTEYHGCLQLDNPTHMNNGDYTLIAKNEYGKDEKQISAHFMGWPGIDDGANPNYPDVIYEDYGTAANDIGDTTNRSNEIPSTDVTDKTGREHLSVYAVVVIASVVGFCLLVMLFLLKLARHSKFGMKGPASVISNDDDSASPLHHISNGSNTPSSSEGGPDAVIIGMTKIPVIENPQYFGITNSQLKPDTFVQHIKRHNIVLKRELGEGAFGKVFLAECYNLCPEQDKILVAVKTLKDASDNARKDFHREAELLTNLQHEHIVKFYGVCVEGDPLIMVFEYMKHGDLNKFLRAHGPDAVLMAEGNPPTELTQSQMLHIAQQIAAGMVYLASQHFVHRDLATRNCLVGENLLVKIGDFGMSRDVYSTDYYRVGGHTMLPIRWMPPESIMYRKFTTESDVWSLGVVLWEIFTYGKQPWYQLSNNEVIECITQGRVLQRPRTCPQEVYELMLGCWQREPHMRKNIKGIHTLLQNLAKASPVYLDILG
T4 sequence (P07333 20-972): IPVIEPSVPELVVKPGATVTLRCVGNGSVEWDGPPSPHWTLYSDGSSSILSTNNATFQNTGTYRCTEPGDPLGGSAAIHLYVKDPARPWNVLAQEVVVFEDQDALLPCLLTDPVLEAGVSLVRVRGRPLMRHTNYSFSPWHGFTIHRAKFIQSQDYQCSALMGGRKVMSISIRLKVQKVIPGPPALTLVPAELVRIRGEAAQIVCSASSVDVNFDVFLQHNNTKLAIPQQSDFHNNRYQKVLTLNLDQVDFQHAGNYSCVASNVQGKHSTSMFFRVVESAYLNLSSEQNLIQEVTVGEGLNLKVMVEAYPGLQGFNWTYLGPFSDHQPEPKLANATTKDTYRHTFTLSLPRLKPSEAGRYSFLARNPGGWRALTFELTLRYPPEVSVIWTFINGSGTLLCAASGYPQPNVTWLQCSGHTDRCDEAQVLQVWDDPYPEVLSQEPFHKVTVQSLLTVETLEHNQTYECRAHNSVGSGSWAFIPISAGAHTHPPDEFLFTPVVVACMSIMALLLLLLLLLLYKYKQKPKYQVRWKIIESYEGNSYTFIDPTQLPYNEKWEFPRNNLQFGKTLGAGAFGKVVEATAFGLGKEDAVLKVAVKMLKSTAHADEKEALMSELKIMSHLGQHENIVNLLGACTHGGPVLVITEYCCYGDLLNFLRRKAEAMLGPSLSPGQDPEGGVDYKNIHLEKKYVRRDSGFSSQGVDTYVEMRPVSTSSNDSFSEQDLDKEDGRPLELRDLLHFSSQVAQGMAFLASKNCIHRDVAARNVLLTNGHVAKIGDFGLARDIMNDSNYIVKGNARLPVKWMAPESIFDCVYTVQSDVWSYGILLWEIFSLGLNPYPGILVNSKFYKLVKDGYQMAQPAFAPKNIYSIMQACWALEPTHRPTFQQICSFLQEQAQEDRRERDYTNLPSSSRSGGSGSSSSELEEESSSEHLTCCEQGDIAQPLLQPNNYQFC

Structure (SMILES)	IC50 (TrkC (h))	IC50 [2]	GI50 [1]	GI50 (Ba/F3 ETV6-NTRK2 cells)
COc1cc2nccc(Oc3ccc(NC(=O)c4nn(C5CC5)cc(-c5ccc(F)cc5)c4=O)cn3)c2cc1OC [Compound 36]	3 nM	–	–	–
COc1cc2nccc(Oc3ncc(NC(=O)c4nn(C(C)C)cc(-c5ccc(F)cc5)c4=O)cn3)c2cc1OC [Compound 34, N-(2-((6,7-dimethoxyquinolin-4-yl)oxy)pyrimidine-5-yl)-5-para-fluorophenyl-1-isopropyl-4-oxo-1,4-dihydropyridazine-3-carboxamide]	6 nM	–	0.68 nM	109 nM
COc1cc2nccc(Oc3cnc(NC(=O)c4nn(C5CC5)cc(-c5ccc(F)cc5)c4=O)nc3)c2cc1OC [Compound 33]	5 nM	–	3 nM	–
COc1cc2nccc(Oc3ccc(NC(=O)c4nn(C5CC5)cc(-c5ccc(F)cc5)c4=O)nc3)c2cc1OC [Compound 31]	3 nM	30 to 100 nM	1.4 nM	–
COc1cc2nccc(Oc3ccc(NC(=O)c4nn(C(C)C)cc(-c5ccc(F)cc5)c4=O)nc3)c2cc1OC [Compound 15, N-(5-((6,7-dimethoxyquinolin-4-yl)oxy)pyridin-2-yl)-5-(4-fluorophenyl)-1-isopropyl-4-oxo-1,4-dihydropyridazine-3-carboxamide]	6 nM	100 to 300 nM	0.09 nM	16.4 nM
COc1cc2nccc(Oc3ncc(NC(=O)c4nn(C5CC5)cc(-c5ccc(F)cc5)c4=O)cn3)c2cc1OC [Compound 37, 1-cyclopropyl-N-(2-((6,7-dimethoxyquinolin-4-yl)oxy)pyrimidine-5-yl)-5-para-fluorophenyl-4-oxo-1,4-dihydropyridazine-3-carboxamide]	4 nM	–	–	–

Continued, in another order:

IC50 (TrkC (h))	IC50 [2]	Structure (SMILES)	GI50 [1]	GI50 (Ba/F3 ETV6-NTRK2 cells)
10 nM	–	COc1cc2nccc(Oc3cnc(NC(=O)c4cn(C(C)C)nc(-c5ccc(F)cc5)c4=O)nc3)c2cc1OC [Compound 39, N-(5-((6,7-dimethoxyquinolin-4-yl)oxy)pyrimidine-2-yl)-6-(4-fluorophenyl)-2-isopropyl-5-oxo-2,5-dihydropyridazine-4-carboxamide]	8.1 nM	–
14 nM	–	COc1cc2nccc(Oc3ncc(NC(=O)c4cn(C(C)C)nc(-c5ccc(F)cc5)c4=O)cn3)c2cc1OC [Compound 40, N-(2-((6,7-dimethoxyquinolin-4-yl)oxy)pyrimidine-5-yl)-6-(4-fluorophenyl)-2-isopropyl-5-oxo-2,5-dihydropyridazine-4-carboxamide]	9.1 nM	–
8 nM	–	COc1cc2nccc(Oc3ccc(NC(=O)c4cn(C(C)C)nc(-c5ccc(F)cc5)c4=O)cn3)c2cc1OC [Compound 38, N-(6-((6,7-dimethoxyquinolin-4-yl)oxy)pyridin-3-yl)-6-para-fluorophenyl-2-isopropyl-5-oxo-2,5-dihydropyridazine-4-carboxamide]	5.7 nM	–
